The minimal effective concentration is the lowest level tested that produced the effect sought.

Data set [1] has as its system nitrite levels in the culture media. The data set is described as follows: Nitrite level (Griess Reagent System) in LPS-challenged RAW 264.7 cells. The class given is cell-based, mouse. Details: key: NS=not significant; a “+” sign=anti-inflammatory or increased cell numbers; a “−” sign=cell toxicity or pro-inflammatory. As to conditions: LPS 30 or 60 ng/mL, 24 h. In a few lines:
(§1)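 RAW 264.7 cells pretreated 1 h with compound in DMSO vehicle, then challenged with LPS (30 or 60 ng/mL) for 24 h at 37° C. Conditioned-media nitrite by Griess (520 nm, sodium nitrite standard curve, 1.5 μM cutoff) in μM; mouse TNF-α by ELISA as pg/ml or % change from control.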
For orientation: The Griess reaction detects nitrite, a stable product of nitric oxide.

Data set [2] concerns TNF-α protein. The experiment in a line: TNF-α protein level (ELISA) in LPS-challenged RAW 264.7 cells. Details: key: NS=not significant; a “+” sign=anti-inflammatory or increased cell numbers; a “−” sign=cell toxicity or pro-inflammatory. The note with it: LPS 30 or 60 ng/mL, 24 h. Type of data set: cell-based, mouse. In a few lines: as §1
(In general: In an ELISA, binding on a coated surface is turned into a signal by an enzyme label.)

In data set [3] the test system is mpo:GFP zebrafish embryos (neutrophil migration to the wound site). The data set is described as follows: mpo:GFP zebrafish fin-clip neutrophil migration (inflammation) assay. Details: mpo:GFP inflammation n (survived/tested): concentration or dose not given beside the values. The note with it: for minimal effective concentration: Danio rerio, Neutrophil, lowest concentration producing an effect, compounds not producing an effect shown at the highest evaluated concentration; for mpo:GFP inflammation n (survived/tested): embryos survived/tested at the concentration given. Type of data set: in vivo. The source says: (§2) Zebrafish embryology: The use of zebrafish embryo (Danio rerio) bioassays as a preclinical model in the classification of novel compounds has increased in recent years due to several factors including; low cost, ease of maintenance, speed of embryonic development, transparency of the embryos and genetic conservation between zebrafish and humans (Howe et al., Nature 2013; 496:498; Therapontos et al., PNAS 2009, 106:8573; Mahony et al., PNAS 2013, 110:12703; Beedie et al., Oncotarget 2016, 7(22):33237; Beedie et al., Mol. Cancer Ther. 2015, 14(10):2228). Two established zebrafish reporter lines were used—the fli1:EGFP line, where the fli1 promoter drives expression of enhanced green fluorescent protein within the developing vasculature (Lawson et al., 2002), and the Tg(mpo::EGFP) line (also known as mpo:GFP), which expresses green fluorescent protein via the neutrophil specific myeloperoxidase promoter (Renshaw et al., Blood 2006, 108:3976). The use of these zebrafish transgenic reporter lines allows for the identification of potential anti-angiogenic and anti-inflammatory compounds respectively, and both have been used previously to successfully classify the action of thalidomide analogs (Therapontos et al., 2009; Mahony et al., 2013; Beedie et al., Oncotarget 2016, 7(22):33237; Beedie et al., Mol. Cancer Ther. 2015, 14(10):2228). Zebrafish embryos were treated with analogs as previously described (Mahony et al., 2013). Briefly, fli1:EGFP embryos were collected and embryos were allowed to develop for 24 hours. Embryos were dechorionated manually and exposed to test compounds or vehicle control for a further 24 hours, imaged and analyzed for intersegmental vessel (ISV) growth. At 24 hours post fertilisation (hpf) the ISVs were ideal to study to visualize and analyze the actions of compounds on angiogenesis. At this time point ISVs were rapidly forming beneath the developing head, over the body and had yet to form in the tail (Lawson and Weinstein, Developmental Biology 2002, 248:307; Therapontos and Vargesson, Developmental Dynamics 2010, 239:2761). Additionally, these sprouts would go on to form the bilateral dorsal longitudinal anastomotic vessels. By treating before this fusion and formation occurs, the effect of each compound on the individual vessels as well as overall patterning structural integrity (Isogai et al., Development 2003, 130:5281) could be determined. Tg(mpo::EGFP) were tail fin clipped as previously detailed (Renshaw et al., 2006; Mahony et al., 2013; Beedie et al., Oncotarget 2016, 7(22):33237; Beedie et al., Mol. Cancer Ther. 2015, 14(10):2228) and incubated with test compounds or vehicle control at 72 hours post fertilization. Fish were imaged at 24 hours and the number of migratory neutrophils present at the wound site were counted. Compounds inducing an at least 50% reduction of neutrophils to the wound site were considered to have anti-inflammatory properties in this system. All larvae were assessed for viability and morphological integrity.
To assess the immunomodulatory effects of the thalidomide analogs, the mpo:gfp transgenic zebrafish line (Renshaw et al., Blood 2006, 108:3976-3978) was utilized because it is an accepted model of inflammation, and can be used to test the effect of anti-inflammatory agents. These embryos express GFP-tagged myeloperoxidase, where green fluorescence marks the neutrophil cells involved in the inflammatory response process, for example following injury, from 72 hours post fertilization (Renshaw et al., 2006; Mahony et al., 2013; Beedie et al., Oncotarget 2016, 7(22):33237). At 72 hpf the dorsal third of the tail fin was removed and the embryos were immersed in the desired compound or vehicle (FIGS. 5A-5C). The embryos were examined for the effect on the inflammatory response quantified as an induction and migration of neutrophils to the wound site 24 hours later.

Data set [4] relates to fli1:EGFP zebrafish embryos (intersegmental vessel growth). The data set is described as follows: fli1:EGFP zebrafish embryo angiogenesis assay. Type of data set: in vivo. Also noted: fli1:EGFP angiogenesis n (survived/tested): concentration or dose not given beside the values. As to conditions: for minimal effective concentration: Danio rerio, lowest concentration producing an effect, compounds not producing an effect shown at the highest evaluated concentration; for fli1:EGFP angiogenesis n (survived/tested): embryos alive after 24 hours of exposure.
Description: as §2
To determine if the thalidomide analogs had any effect on angiogenesis, fli1:EGFP embryos (Lawson and Weinstein, Developmental Biology 2002, 248:307-318) were exposed to either vehicle or a compound of interest, over a range of concentrations and over a range of time points starting at 24 hpf. Images were obtained at three time points over 24 hours after exposure to the compounds. The best concentration and time point were selected. CPS49, a compound that is chemically and structurally similar to thalidomide breakdown products, and is tetrafluorinated (which adds stability and bioactivity to the compound) and that causes severe limb defects in chicken embryos, was used as a positive control. The embryos were imaged at 48 hpf (FIGS. 3A3L) and analyzed for both vessel formation and the extent of growth of the vasculature. […]

For data set [5], the system named is RAW 264.7 cells. The experiment in a line: Cell viability (CellTiter 96 AQueous One) of LPS-challenged RAW 264.7 cells. Type of data set: cell-based, mouse. Details: key: NS=not significant; a “+” sign=anti-inflammatory or increased cell numbers; a “−” sign=cell toxicity or pro-inflammatory. In a few lines:
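RAW 264.7 murine macrophages pretreated 1 h with compound or DMSO vehicle, then challenged with LPS (serotype 055:B5) at 30 or 60 ng/mL final for 24 h. After media replacement, viability measured by tetrazolium (MTS) conversion, absorbance at 490 nm, reported as O.D.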

As for `O=C1c2cccc(O)c2C(=O)N1c1nc2ccc(C(F)(F)F)cc2s1` [Compound 61], the Nitrite result is listed as “NS” in data set [1] (1 μM), “+” in data set [1] (10 μM) and “+” in data set [1] (30 μM). The TNF-α result is “NS” in data set [2] (1 μM), “NS” in data set [2] (10 μM) and “+” in data set [2] (30 μM). The minimal effective concentration in data set [3] was 1 µg/mL; in data set [4], 100 µg/mL. Moreover, the “mpo:GFP inflammation n (survived/tested)” value in data set [3] was 9/20. The “fli1:EGFP angiogenesis n (survived/tested)” value in data set [4] is on record as 3/15. The values for the Viability entry in data set [5] (1 μM), in data set [5] (10 μM) and in data set [5] (30 μM) were “NS”, “NS” and “−”, respectively.

Take `FC(F)(F)c1ccc(/N=C2/c3ccccc3CN2c2ccc(C(F)(F)F)cn2)nc1` [Compound 66]: the Nitrite entry in data set [1] (1 μM) is given as “NS”; in data set [1] (10 μM), “NS”; in data set [1] (30 μM) it was “+”. The TNF-α entry is recorded as “NS” in data set [2] (1 μM), “NS” in data set [2] (10 μM) and “+” in data set [2] (30 μM). Moreover, the minimal effective concentration in data set [3] and in data set [4] was 100 µg/mL throughout. The “mpo:GFP inflammation n (survived/tested)” value in data set [3] is on record as 6/15. For the same molecule, in data set [4], the “fli1:EGFP angiogenesis n (survived/tested)” value is 15/15. Besides, the Viability entry is listed as “−” in data set [5] (1 μM), “NS” in data set [5] (10 μM) and “−” in data set [5] (30 μM).

In the case of `O=C1c2cccc([N+](=O)[O-])c2CN1C12CC3CC(CC1C3)C2` [Compound 84], the Nitrite result in data set [1] (1 μM) is reported as “NS”; in data set [1] (10 μM), “+”; in data set [1] (30 μM) it was “+”. For the same molecule, the TNF-α result in data set [2] (1 μM), in data set [2] (10 μM) and in data set [2] (30 μM) was “NS” throughout. Besides, the minimal effective concentration in data set [3] worked out at 10 µg/mL; in data set [4], 50 µg/mL. Moreover, in data set [3], the “mpo:GFP inflammation n (survived/tested)” value was 12/21. In addition, the “fli1:EGFP angiogenesis n (survived/tested)” value in data set [4] is listed as 2/11. Also, the Viability entry in data set [5] (1 μM), in data set [5] (10 μM) and in data set [5] (30 μM) was “NS” each time.

As to `CC(N1Cc2ccccc2C1=S)C12CC3CC(CC(C3)C1)C2` (centres unmarked) [Compound 74, 2,3-Dihydro-2-[1-(1-tricyclo[3.3.1.1^3,7]dec-1-yl)ethyl]-1H-isoindol-1-thione], the Nitrite result in data set [1] (1 μM) was “NS”; in data set [1] (10 μM), “NS”; in data set [1] (30 μM) it was “+”. Moreover, the TNF-α result in data set [2] (1 μM), in data set [2] (10 μM) and in data set [2] (30 μM) was “NS” in each case. Moreover, the minimal effective concentration in data set [3] came to 200 µg/mL; in data set [4] it was 10 µg/mL. Besides, the “mpo:GFP inflammation n (survived/tested)” value in data set [3] was 6/14. In addition, in data set [4], the “fli1:EGFP angiogenesis n (survived/tested)” value was 9/15. The Viability result in data set [5] (1 μM), in data set [5] (10 μM) and in data set [5] (30 μM) was “NS” each time.

Regarding `O=C1c2cccc([N+](=O)[O-])c2C(=O)N1C1CCC(=S)NC1=S` (centres unmarked) [Compound 9, 2-(2,6-Dithioxo-3-piperidinyl)-4-nitro-1H-isoindole-1,3(2H)-dione], the Nitrite entry in data set [1] (30 μM), in data set [1] (60 μM) and in data set [1] (100 μM) was “+” each time. The TNF-α result in data set [2] (30 μM), in data set [2] (60 μM) and in data set [2] (100 μM) was “NS” throughout. Also, the minimal effective concentration in data set [3] and in data set [4] was 10 µg/mL each time. In addition, in data set [3], the “mpo:GFP inflammation n (survived/tested)” value is on record as 12/12. In addition, in data set [4], the “fli1:EGFP angiogenesis n (survived/tested)” value is given as 14/21. Moreover, the figures for the Viability entry in data set [5] (30 μM), in data set [5] (60 μM) and in data set [5] (100 μM) were “NS”, “NS” and “+”, respectively.

Turning to `O=C1c2cccc([N+](=O)[O-])c2CN1c1nc2ccc(C(F)(F)F)cc2s1` [Compound 63], the Nitrite entry in data set [1] (1 μM), in data set [1] (10 μM) and in data set [1] (30 μM) was “−” each time. Moreover, the TNF-α result in data set [2] (1 μM), in data set [2] (10 μM) and in data set [2] (30 μM) was “NS” each time. Also, the minimal effective concentration is 100 µg/mL in data set [3] and 200 µg/mL in data set [4]. In addition, in data set [3], the “mpo:GFP inflammation n (survived/tested)” value was 12/20. The “fli1:EGFP angiogenesis n (survived/tested)” value in data set [4] was 6/23. In addition, the Viability result in data set [5] (1 μM) is listed as “NS”; in data set [5] (10 μM), “NS”; in data set [5] (30 μM), “−”.

As to `O=C1c2ccccc2CN1CC12CC3CC(CC(C3)C1)C2` [Compound 70], the Nitrite result is “NS” in data set [1] (1 μM), “NS” in data set [1] (10 μM) and “+” in data set [1] (30 μM). Besides, the TNF-α entry is “NS” in data set [2] (1 μM), “+” in data set [2] (10 μM) and “+” in data set [2] (30 μM). Also, the results for the minimal effective concentration in data set [3] and in data set [4] were 200 µg/mL and 10 µg/mL, respectively. In data set [3], the “mpo:GFP inflammation n (survived/tested)” value was 10/15. In addition, the “fli1:EGFP angiogenesis n (survived/tested)” value in data set [4] was 8/10. In addition, the Viability entry in data set [5] (1 μM), in data set [5] (10 μM) and in data set [5] (30 μM) was “NS” in each case.

Turning to `CC1(C)S[C@@H]2[C@H](N3Cc4ccccc4C3=O)C(=O)N2[C@H]1C(=O)O` [Compound 65, (1)-(2S,5R,6R)-3,3-Dimethyl-7-oxo-6-(1-oxo-1,3-dihydro-1H-isoindol-2-yl)-4-thia-1-azabicyclo[3.2.0]heptane-2-carboxylic acid], the Nitrite entry in data set [1] (1 μM), in data set [1] (10 μM) and in data set [1] (30 μM) was “NS” in each case. In addition, the TNF-α entry in data set [2] (1 μM), in data set [2] (10 μM) and in data set [2] (30 μM) was “−” throughout. For the same molecule, the minimal effective concentration in data set [3] and in data set [4] was 200 µg/mL in each case. The “mpo:GFP inflammation n (survived/tested)” value in data set [3] is given as 10/20. In addition, the “fli1:EGFP angiogenesis n (survived/tested)” value in data set [4] is 13/13. The Viability entry in data set [5] (1 μM), in data set [5] (10 μM) and in data set [5] (30 μM) was “NS” in each case.
